Literature values, collected in US20140100282A1, “INTRANASAL ADMINISTRATION OF PHARMACEUTICAL AGENTS FOR TREATMENT OF NEUROLOGICAL DISEASES” (priority 2012, published 2014).
Where two headings read alike, the source gives them in different places. Each block holds one molecule with its values, some of them ahead of it.

Experiments:
[1] = test system: protein phosphatase 2A (PP2A); conditions: murine primary neurons from wild-type and human tau transgenic mice
[2] = animal and humans
amyloid beta = conditions: monotherapy at doses that lead to activation of AMPK
tau = conditions: transgenic mice
[3] = intranasal
[4] = mouse, intravenous, autoradiography after 30 minutes

PP2A activity [1]: induces PP2A activity
absorption from the blood to the brain [2]: negligible
Molecule: CN(C)C(=N)NC(=N)N [metformin]
migration of glioblastoma cells (glioblastoma cells): significantly inhibited
growth of glioblastoma cells (glioblastoma cells; basal and leptin-stimulated): reduced basal and leptin-stimulated growth of glioblastoma cells in a dose-dependent manner
generation of amyloid beta species (amyloid beta): significantly increases
phosphorylation of Ser202 (tau; 100 nM): decreased phosphorylation of Ser202 slightly
phosphorylation of Ser202 (tau; 10 μM): significantly reduced

Molecule: insulin: intranasal insulin (20 and 40 IU)
cognition on Alzheimer Disease's Assessment Scale-cognitive subscale ([3]; 20 and 40 IU, compared with placebo): less decline in cognition
recall of episodic memories ([3]; 20 or 40 IU for 4 months, relative to placebo): improved recall of episodic memories
brain glucose uptake and utilization ([3]; over the 4-month period, compared with placebo): reduced decline in brain glucose uptake and utilization

penetration into the brain or spinal cord through the BBB [4]: zero penetration
Molecule: NCCc1c[nH]cn1 [histamine]
